The term GI50 denotes the concentration at which growth is held to half of that of the control. High values mean lower sensitivity of the cells, low ones greater sensitivity of the cells.

One data set concerns HEK293 Tau-BiFC cells. In words: Cell viability of tau-BiFC cells (number of nuclei). Type of data set: cell-based, human. The conditions noted are these: 48 h of treatment. How it is done: (§1) HEK293 Tau-BiFC cells were maintained in Dulbecco’s modified Eagle medium (DMEM) supplemented with 10% fetal bovine serum (FBS), 100 units/mL penicillin, 100 µg/mL streptomycin and 100 µg/mL Geneticin (G418) in a humidified atmosphere containing 5% CO2 at 37 °C. Tau-BiFC cells were activated by treatment with FK (30 μM) or tauK18^P301L (5 μg/mL).
(§2) For screening of FDA-approved & Passed Phase I Drug Library, tau-BiFC cells were plated on µ-clear 384-well plates. The next day, the cells were cotreated with forskolin and 1,018 library compounds at a concentration of 10 µM. MB and LMTM (3 µM) were used as positive controls. After 46 h, nuclei were counterstained with Hoechst (Invitrogen). BiFC (λex = 460–490 nm and λem = 500–550 nm) and Hoechst (λex = 355–385 nm and λem = 430–500 nm) fluorescence images were acquired automatically by using Operetta® (PerkinElmer). BiFC fluorescence intensity and the number of nuclei were quantified using Harmony 3.1 software (PerkinElmer). Integrated tau-BiFC intensity represents the area of selected cell X mean fluorescence intensity. The means and standard deviations (S.D.) of BiFC fluorescence intensities and the number of nuclei were plotted using GraphPad Prism.

Experiment in data set [1]: as above
Conditions: human, HEK293 Tau-BiFC cells, 48 h of treatment. Type of data set: cell-based, human. How it is done:
as §1, §2

In a further data set the target is T1, tauK18 (Homo sapiens, UniProt P10636).
T1 construct: under in vitro conditions using a purified tauK18 fragment; 6xHis; made in house; host or cells: E. coli BL21 (DE3)
Nature of the data set: Transmission electron microscopy of tau filaments and oligomers. Format: biochemical. Conditions: tauK18 preaggregates; DMSO control 13.7 ± 5.2 nm. How it is done: Samples were placed onto carbon-coated copper electron microscopy grids and then negatively stained with 2% (w/v) aqueous uranyl acetate for 1 min. To image the tau filaments (Fig. 3d), the grids were observed using a JEM-1011 transmission electron microscope (JEOL) at an acceleration voltage of 80 kV. To image the tau filaments and oligomers (Figs. 3f and 4e), the grids were observed using a Tecni G2 F20 transmission electron microscope (FEI) at an acceleration voltage of 120 kV. Eight to twelve random images from each experimental condition were captured by the operator as a blind observer.

A short description of data set [2]: 1H NMR of reaction with N-acetyl-L-cysteine methyl ester. Conditions: room temperature. How it is done: NMR analysis was performed at 25 °C and recorded in δ units relative to deuterated solvent as an internal reference using a 400 MHz NMR instrument (Bruker). Deuterated phosphate-buffered saline (d-PBS) was prepared at a concentration of 50 mM (D2O + H2O, 1:1, v/v). Levosimendan (50 mg, […], 1 equivalent) reacted with N-acetyl-L-cysteine methyl ester (38 mg, […], 1.2 equivalent) in 10 mL of d-PBS/DMSO-d6 (1:1, v/v) at room temperature, and the reaction was checked at various time points. For the reversibility study, the reaction mixture was diluted ten times with d-PBS/DMSO-d6 (1:1, v/v) and monitored at room temperature.

Details of data set [3]: method as in PMID 15489122. Conditions: in humans; cited from earlier work.
The mark [4] stands for this setting: Tau-BiFC^ON by forskolin (30 μM).
The mark [5] stands for this setting: Tau-BiFC^ON by tauK18^P301L (5 μg/mL).

T1 sequence (P10636 561-685 limits assumed): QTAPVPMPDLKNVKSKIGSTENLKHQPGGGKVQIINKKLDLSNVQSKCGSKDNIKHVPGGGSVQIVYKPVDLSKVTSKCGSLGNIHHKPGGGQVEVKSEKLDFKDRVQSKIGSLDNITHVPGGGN

For `CN(C)c1ccc2c(c1)Sc1cc(N(C)C)ccc1N2.CS(=O)(=O)O.CS(=O)(=O)O` [LMTM, leucomethylene blue mesylate], the GI50 worked out at 6.4 ± 0.3 µM in the data set on HEK293 Tau-BiFC cells (setting [4]) and 6.6 ± 0.3 µM with HEK293 Tau-BiFC cells (setting [5]).
With `C[C@@H]1CC(=O)NN=C1c1ccc(NN=C(C#N)C#N)cc1` [Levosimendan], the GI50 at 48 h came out at 124 ± 0.3 µM in data set [1] (setting [4]) and 101.3 ± 0.4 µM in data set [1] (setting [5]). Further, the “Diameter (width) of tau particles (TEM)” value on tauK18 worked out at 8.8 ± 2.0 nm. In addition, the “Time to almost complete restoration of levosimendan upon ten-fold dilution” value in data set [2] (reaction mixture diluted ten times) is recorded as 5 days. Besides, the “Time to complete formation of the levosimendan-cysteine conjugate” value in data set [2] (with N-acetyl-L-cysteine methyl ester) was ≤ 2 h. The “Portion of levosimendan metabolized to OR-1855 and OR-1896” value in data set [3] is listed as 5%.

(Values after article PMC10073126, “Levosimendan inhibits disulfide tau oligomerization and ameliorates tau pathology in Tau^P301L-BiFC mice” (Experimental & Molecular Medicine, 2023).)
